Data: patent US9079913B2, “Spiro-oxindole MDM2 antagonists” (The Regents of the University of Michigan, priority 2009, dated 2015)
Like-named read-outs stand apart in the source and are kept apart here. Blank lines part the entries; values can stand above or below the compound they belong to.

Columns and labels:
[1] = In vitro microsomal stability, rat; type: in vitro ADME; conditions: for microsomal stability (in words) / % of compound remaining when incubated in rat liver microsomes with NADPH: rat liver microsomes; for half-life: rat, liver microsomes, rat liver microsomes with NADPH
[2] = In vitro microsomal stability, human; type: in vitro ADME; conditions: for microsomal stability (in words) / % of compound remaining when incubated in human liver microsomes with NADPH: human liver microsomes; for half-life: human, liver microsomes, human liver microsomes with NADPH
[3] = In vitro microsomal stability, dog; type: in vitro ADME; conditions: for Microsomal stability, % remaining: Dog microsomes
[4] = Microsomal stability study, negative control incubation; type: in vitro ADME
[5] = biological target: recombinant human His-tagged MDM2 protein (residues 1-118) (Homo sapiens (Human), UniProt Q00987); assay: Fluorescence-polarization MDM2 binding assay; conditions: Table 19A; FP binding assay; read-out: MDM2 IC50;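 also: fluorescence polarization read after three hours of incubation in potassium phosphate buffer containing bovine gamma globulin and Triton X-100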
recombinant human His-tagged MDM2 protein (residues 1-118), sequence (Q00987 1-118): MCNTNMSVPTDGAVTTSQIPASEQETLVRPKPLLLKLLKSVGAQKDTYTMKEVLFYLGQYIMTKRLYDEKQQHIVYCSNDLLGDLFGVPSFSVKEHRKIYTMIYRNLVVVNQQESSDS

[6] = tested on: Isogenic HCT-116 colon cancer cell lines; assay: cells; type: cell-based; conditions: Homo sapiens, cell growth;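 also: cells grown in 96-well plates in McCoy's 5A medium with 10% FBS, exposed to compound for 4 days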
Protocol: Cells were seeded in 96-well flat bottom cell culture plates at a density of 2−3×10^3 cells/well with compounds and incubated for 4 days.

[7] = tested on: cancer cell lines with wild-type p53 / mutated or deleted p53 (ATCC); assay: Cell growth assay (WST-8), other cancer cell lines; type: cell-based; conditions: Homo sapiens
[8] = Pharmacokinetic studies in rats; type: in vivo, rat; conditions: for oral bioavailability / oral pharmacokinetics in rats (in words): oral dosing; for bioavailability / half-life / AUC(0-t) / Cmax: rat, plasma, male rats, oral dose 15 mg/kg; for AUC(0-t): read-out: AUC(0-t); for Cmax: read-out: Cmax
Protocol: Pharmacokinetic studies on MDM2 inhibitors were carried out in rat. For comparison, the MDM2 inhibitor, AT-219, was also studied.

[9] = HCT-116, read-out: HCT-116 (p53-/-) IC50, Table 19A, HCT-116 p53-/-
[10] = HCT-116, read-out: HCT-116 (p53 wild-type) IC50, Table 19A, HCT-116 p53 wild-type
[11] = LNCaP, Table 19A, LNCAP cells, p53 wild-type, cell growth, read-out: LNCAP (p53 wild-type) IC50
[12] = PC-3, Table 19A, PC-3 cells, deleted p53, cell growth, read-out: PC-3 (deleted p53) IC50
[13] = Rat Microsome, same batch, 0 min
[14] = Rat Microsome, same batch, 5 min
[15] = Rat Microsome, same batch, 10 min
[16] = Rat Microsome, same batch, 15 min
[17] = Rat Microsome, same batch, 30 min
[18] = Rat Microsome, same batch, 45 min
[19] = Rat Microsome, same batch, 60 min
[20] = Human Microsome, same batch, 0 min
[21] = Human Microsome, same batch, 5 min
[22] = Human Microsome, same batch, 10 min
[23] = Human Microsome, same batch, 15 min
[24] = Human Microsome, same batch, 30 min
[25] = Human Microsome, same batch, 45 min
[26] = Human Microsome, same batch, 60 min

Microsomal stability, % remaining ([1]; Rat microsomes, 0 min): 100.00%
Microsomal stability, % remaining ([1]; Rat microsomes, 5 min): 68.05%
Microsomal stability, % remaining ([1]; Rat microsomes, 10 min): 31.04%
Microsomal stability, % remaining ([1]; Rat microsomes, 15 min): 16.85%
Microsomal stability, % remaining ([1]; Rat microsomes, 30 min): 6.18%
Microsomal stability, % remaining ([1]; Rat microsomes, 45 min): 4.40%
Microsomal stability, % remaining ([1]; Rat microsomes, 60 min): 3.43%
microsomal stability (in words) [1]: metabolized fairly rapidly
Microsomal stability, % remaining ([2]; Human microsomes, 0 min): 100.00%
Microsomal stability, % remaining ([2]; Human microsomes, 5 min): 78.23%
Microsomal stability, % remaining ([2]; Human microsomes, 10 min): 58.01%
Microsomal stability, % remaining ([2]; Human microsomes, 15 min): 41.59%
Microsomal stability, % remaining ([2]; Human microsomes, 30 min): 19.67%
Microsomal stability, % remaining ([2]; Human microsomes, 45 min): 10.81%
Microsomal stability, % remaining ([2]; Human microsomes, 60 min): 7.18%
microsomal stability (in words) [2]: metabolized fairly rapidly
Microsomal stability, % remaining ([3]; 0 min): 100.00%
Microsomal stability, % remaining ([3]; 5 min): 77.84%
Microsomal stability, % remaining ([3]; 10 min): 47.98%
Microsomal stability, % remaining ([3]; 15 min): 44.83%
Microsomal stability, % remaining ([3]; 30 min): 21.52%
Microsomal stability, % remaining ([3]; 45 min): 17.08%
Microsomal stability, % remaining ([3]; 60 min): 12.15%
microsomal stability (in words) ([3]; dog microsomes): metabolized fairly rapidly
Microsomal stability, % remaining ([4]; 0 min): 100.00%
Microsomal stability, % remaining ([4]; 5 min): 94.73%
Microsomal stability, % remaining ([4]; 10 min): 90.77%
Microsomal stability, % remaining ([4]; 15 min): 93.43%
Microsomal stability, % remaining ([4]; 30 min): 94.14%
Microsomal stability, % remaining ([4]; 45 min): 91.07%
Microsomal stability, % remaining ([4]; 60 min): 85.38%
SMILES: CC(C)(C)C[C@H]1N[C@@H](C(=O)NCC[C@H](O)CO)[C@H](c2cccc(Cl)c2F)[C@@]12C(=O)Nc1cc(Cl)ccc12 [MI-147, reference compound]

SMILES: CC(C)(C)C[C@H]1N[C@@H](C(=O)NCC[C@H](O)CN2CCCC2)[C@H](c2cccc(Cl)c2)[C@@]12C(=O)Nc1cc(Cl)c(F)cc12 [MI-519-28]
IC50 [5]: < 2 µM
IC50 [6, 9]: > 5 µM
IC50 [6, 10]: < 2 µM
IC50 [7, 11]: < 2 µM
IC50 [7, 12]: 4.1 ± 0.2 µM
Microsomal stability, % remaining [1, 13]: 100.00%
Microsomal stability, % remaining [1, 14]: 92.34%
Microsomal stability, % remaining [1, 15]: 87.59%
Microsomal stability, % remaining [1, 16]: 86.13%
Microsomal stability, % remaining [1, 17]: 71.97%
Microsomal stability, % remaining [1, 18]: 65.40%
Microsomal stability, % remaining [1, 19]: 61.79%
microsomal stability (in words) [1]: improved stability over MI-219
% of compound remaining when incubated in rat liver microsomes with NADPH ([1]; 0 min): 100.00%
% of compound remaining when incubated in rat liver microsomes with NADPH ([1]; 5 min): 92.34%
% of compound remaining when incubated in rat liver microsomes with NADPH ([1]; 10 min): 87.59%
% of compound remaining when incubated in rat liver microsomes with NADPH ([1]; 15 min): 86.13%
% of compound remaining when incubated in rat liver microsomes with NADPH ([1]; 30 min): 71.97%
% of compound remaining when incubated in rat liver microsomes with NADPH ([1]; 45 min): 65.40%
% of compound remaining when incubated in rat liver microsomes with NADPH ([1]; 60 min): 61.79%
half-life [1]: 1.24 h
Microsomal stability, % remaining [2, 20]: 100.00%
Microsomal stability, % remaining [2, 21]: 91.87%
Microsomal stability, % remaining [2, 22]: 89.02%
Microsomal stability, % remaining [2, 23]: 77.40%
Microsomal stability, % remaining [2, 24]: 66.83%
Microsomal stability, % remaining [2, 25]: 55.85%
Microsomal stability, % remaining [2, 26]: 53.78%
microsomal stability (in words) [2]: improved stability over MI-219
% of compound remaining when incubated in human liver microsomes with NADPH ([2]; 0 min): 100.00%
% of compound remaining when incubated in human liver microsomes with NADPH ([2]; 5 min): 91.87%
% of compound remaining when incubated in human liver microsomes with NADPH ([2]; 10 min): 89.02%
% of compound remaining when incubated in human liver microsomes with NADPH ([2]; 15 min): 77.40%
% of compound remaining when incubated in human liver microsomes with NADPH ([2]; 30 min): 66.83%
% of compound remaining when incubated in human liver microsomes with NADPH ([2]; 45 min): 55.85%
% of compound remaining when incubated in human liver microsomes with NADPH ([2]; 60 min): 53.78%
half-life [2]: 0.902 h
oral bioavailability / oral pharmacokinetics in rats (in words) [8]: much inferior oral pharmacokinetic parameters
bioavailability [8]: 8.4%
half-life [8]: 1.6 ± 0.2 h
AUC(0-t) [8]: 419 ± 239 µg·h/mL
Cmax [8]: 0.102 ± 0.046 µg/mL

SMILES: CC(C)(C)C[C@H]1N[C@@H](C(=O)NCC[C@H](O)CNC(C)(C)C)[C@H](c2cccc(Cl)c2)[C@@]12C(=O)Nc1cc(Cl)c(F)cc12 [MI-519-24]
IC50 [5]: < 2 µM
IC50 [6, 9]: 6.5 ± 0.7 µM
IC50 [6, 10]: < 2 µM
IC50 [7, 11]: < 3 µM
IC50 [7, 12]: 3.7 ± 0.2 µM
Microsomal stability, % remaining [1, 13]: 100.00%
Microsomal stability, % remaining [1, 14]: 102.16%
Microsomal stability, % remaining [1, 15]: 86.33%
Microsomal stability, % remaining [1, 16]: 75.72%
Microsomal stability, % remaining [1, 17]: 68.24%
Microsomal stability, % remaining [1, 18]: 66.08%
Microsomal stability, % remaining [1, 19]: 61.51%
microsomal stability (in words) [1]: improved stability over MI-219
% of compound remaining when incubated in rat liver microsomes with NADPH ([1]; 0 min): 100.00%
% of compound remaining when incubated in rat liver microsomes with NADPH ([1]; 5 min): 102.16%
% of compound remaining when incubated in rat liver microsomes with NADPH ([1]; 10 min): 86.33%
% of compound remaining when incubated in rat liver microsomes with NADPH ([1]; 15 min): 75.72%
% of compound remaining when incubated in rat liver microsomes with NADPH ([1]; 30 min): 68.24%
% of compound remaining when incubated in rat liver microsomes with NADPH ([1]; 45 min): 66.08%
% of compound remaining when incubated in rat liver microsomes with NADPH ([1]; 60 min): 61.51%
half-life [1]: 0.809 h
Microsomal stability, % remaining [2, 20]: 100.00%
Microsomal stability, % remaining [2, 21]: 57.08%
Microsomal stability, % remaining [2, 22]: 53.92%
Microsomal stability, % remaining [2, 23]: 49.62%
Microsomal stability, % remaining [2, 24]: 47.41%
Microsomal stability, % remaining [2, 25]: 41.18%
Microsomal stability, % remaining [2, 26]: 41.42%
% of compound remaining when incubated in human liver microsomes with NADPH ([2]; 0 min): 100.00%
% of compound remaining when incubated in human liver microsomes with NADPH ([2]; 5 min): 57.08%
% of compound remaining when incubated in human liver microsomes with NADPH ([2]; 10 min): 53.92%
% of compound remaining when incubated in human liver microsomes with NADPH ([2]; 15 min): 49.62%
% of compound remaining when incubated in human liver microsomes with NADPH ([2]; 30 min): 47.41%
% of compound remaining when incubated in human liver microsomes with NADPH ([2]; 45 min): 41.18%
% of compound remaining when incubated in human liver microsomes with NADPH ([2]; 60 min): 41.42%
half-life [2]: 0.187 h
oral bioavailability / oral pharmacokinetics in rats (in words) [8]: much inferior oral pharmacokinetic parameters
bioavailability [8]: 1.1%
half-life [8]: 3.2 ± 1.4 h
AUC(0-t) [8]: 101 ± 62 µg·h/mL
Cmax [8]: 0.035 ± 0.023 µg/mL

SMILES: CC(C)(C)C[C@H]1N[C@@H](C(=O)NCCC(C)(O)CO)[C@H](c2cccc(Cl)c2)[C@@]12C(=O)Nc1cc(Cl)c(F)cc12 (stereo partly drawn) [MI-758]
IC50 [5]: < 1 µM
IC50 [6, 9]: 19.1 ± 3.6 µM
IC50 [6, 10]: 0.6 µM
IC50 [7, 11]: 0.6 µM
IC50 [7, 12]: 18.7 ± 7.1 µM
Microsomal stability, % remaining [1, 13]: 100.00%
Microsomal stability, % remaining [1, 14]: 96.52%
Microsomal stability, % remaining [1, 15]: 92.93%
Microsomal stability, % remaining [1, 16]: 82.50%
Microsomal stability, % remaining [1, 17]: 73.32%
Microsomal stability, % remaining [1, 18]: 69.33%
Microsomal stability, % remaining [1, 19]: 66.93%
microsomal stability (in words) [1]: improved stability over MI-219
% of compound remaining when incubated in rat liver microsomes with NADPH ([1]; 0 min): 100.00%
% of compound remaining when incubated in rat liver microsomes with NADPH ([1]; 5 min): 96.52%
% of compound remaining when incubated in rat liver microsomes with NADPH ([1]; 10 min): 92.93%
% of compound remaining when incubated in rat liver microsomes with NADPH ([1]; 15 min): 82.50%
% of compound remaining when incubated in rat liver microsomes with NADPH ([1]; 30 min): 73.32%
% of compound remaining when incubated in rat liver microsomes with NADPH ([1]; 45 min): 69.33%
% of compound remaining when incubated in rat liver microsomes with NADPH ([1]; 60 min): 66.93%
half-life [1]: 1.33 h
Microsomal stability, % remaining [2, 20]: 100.00%
Microsomal stability, % remaining [2, 21]: 95.88%
Microsomal stability, % remaining [2, 22]: 89.21%
Microsomal stability, % remaining [2, 23]: 81.61%
Microsomal stability, % remaining [2, 24]: 65.20%
Microsomal stability, % remaining [2, 25]: 54.52%
Microsomal stability, % remaining [2, 26]: 51.45%
microsomal stability (in words) [2]: improved stability over MI-219
% of compound remaining when incubated in human liver microsomes with NADPH ([2]; 0 min): 100.00%
% of compound remaining when incubated in human liver microsomes with NADPH ([2]; 5 min): 95.88%
% of compound remaining when incubated in human liver microsomes with NADPH ([2]; 10 min): 89.21%
% of compound remaining when incubated in human liver microsomes with NADPH ([2]; 15 min): 81.61%
% of compound remaining when incubated in human liver microsomes with NADPH ([2]; 30 min): 65.20%
% of compound remaining when incubated in human liver microsomes with NADPH ([2]; 45 min): 54.52%
% of compound remaining when incubated in human liver microsomes with NADPH ([2]; 60 min): 51.45%
half-life [2]: 0.825 h
oral bioavailability / oral pharmacokinetics in rats (in words) [8]: good oral bioavailability and pharmacokinetic parameters
bioavailability [8]: 38%
half-life [8]: 1.9 ± 0.1 h
AUC(0-t) [8]: 4280 ± 2690 µg·h/mL
Cmax [8]: 1.49 ± 1.12 µg/mL
